Read-outs that look alike come from different tables or passages of the source.
Legend:
[1] = Paclitaxel dissolution study, USP Apparatus II; type: physicochemical
Procedure: Beads were transferred to a stainless steel mesh container and placed in the dissolution bath containing methanol/water 50/50 (v/v) media at 37° C., pH 7, and a USP Apparatus II (Paddle), operating at 75 rpm. […] Absorbance values of the samples were compared to those of standard solutions prepared in dissolution media to determine the amount of material dissolved. […] Absorbance values of the samples were compared to those of standard solutions prepared in dissolution media to determine the amount of material dissolved.
Beads were transferred to a stainless steel mesh container and placed in the dissolution bath containing methanol/water 50/50 (v/v) media at 37° C., pH 7, and a USP Apparatus II (Paddle), operating at 75 rpm. […] Absorbance values of the samples were compared to those of standard solutions prepared in dissolution media to determine the amount of material dissolved.

[2] = Bulk density (not tapped); type: physicochemical; conditions: room temperature
Procedure: As used herein, the “specific surface area” (SSA) is the total surface area of the taxane particle per unit of taxane mass as measured by the Brunauer-Emmett-Teller (“BET”) isotherm by the following method: a known mass between 200 and 300 mg of the analyte is added to a 30 mL sample tube. […] The automated test is then carried out using the BETWIN® software package and the surface area of each sample is subsequently calculated. As will be understood by those of skill in the art, the “taxane particles” can include both agglomerated taxane particles and non-agglomerated taxane particles; since the SSA is determined on a per gram basis it takes into account both the larger agglomerated and smaller non-agglomerated taxane particles in the composition. The agglomerated taxane particles are defined herein as individual taxane particles that are formed by the agglomeration of smaller particles which fuse together forming the larger individual taxane particles, all of which occurs during the processing of the taxane particles. The BET specific surface area test procedure is a compendial method included in both the United States Pharmaceopeia and the European Pharmaceopeia. […]
The mass of the drug was measured to a nearest 0.1 mg, the volume was determined to the nearest 0.1 mL and the density calculated.

[3] = BET specific surface area analysis; type: physicochemical
Procedure: As used herein, the “specific surface area” (SSA) is the total surface area of the taxane particle per unit of taxane mass as measured by the Brunauer-Emmett-Teller (“BET”) isotherm by the following method: a known mass between 200 and 300 mg of the analyte is added to a 30 mL sample tube. […] The automated test is then carried out using the BETWIN® software package and the surface area of each sample is subsequently calculated. As will be understood by those of skill in the art, the “taxane particles” can include both agglomerated taxane particles and non-agglomerated taxane particles; since the SSA is determined on a per gram basis it takes into account both the larger agglomerated and smaller non-agglomerated taxane particles in the composition. The agglomerated taxane particles are defined herein as individual taxane particles that are formed by the agglomeration of smaller particles which fuse together forming the larger individual taxane particles, all of which occurs during the processing of the taxane particles. […]
A known mass between 200 and 300 mg of the analyte was added to a 30 mL sample tube. […] The automated test was then carried out using the BETWIN® software package and the surface area of each sample was subsequently calculated.

[4] = system: human renal cell adenocarcinoma (786-O cell line); test: Drug efficacy in rat xenograft model, tumor volume; type: in vivo; conditions: IV, QW × 3, 2.5-5 mg/kg
[5] = Docetaxel dissolution study, USP Apparatus II; type: physicochemical
Procedure: The procedures used to determine the dissolution rates are as follows. […] Beads were transferred to a stainless steel mesh container and placed in the dissolution bath containing methanol/water 50/50 (v/v) media at 37° C., pH 7, and a USP Apparatus II (Paddle), operating at 75 rpm. At 10, 20, 30, 60, and 90 minutes, a 5 mL aliquot was removed, filtered through a 0.22 μm filter and analyzed on a UV/VIS spectrophotometer at 227 nm. Absorbance values of the samples were compared to those of standard solutions prepared in dissolution media to determine the amount of material dissolved. […] At 5, 15, 30, 60, 120 and 225 minutes, a 5 mL aliquot was removed, filtered through a 0.22 μm filter, and analyzed on a UV/VIS spectrophotometer at 232 nm. Absorbance values of the samples were compared to those of standard solutions prepared in dissolution media to determine the amount of material dissolved.
At 5, 15, 30, 60, 120 and 225 minutes, a 5 mL aliquot was removed, filtered through a 0.22 μm filter, and analyzed on a UV/VIS spectrophotometer at 232 nm. Absorbance values of the samples were compared to those of standard solutions prepared in dissolution media to determine the amount of material dissolved.

[6] = Body weight and clinical observations in xenograft study; conditions: IV, group 6, initial dosage 5 mg/kg
Procedure: Individual Body Weights: Three times weekly (M, W, F) starting at the time of inoculation.
Macroscopic Examination: A necropsy was conducted on all animals dying spontaneously, euthanized in extremis or at the scheduled necropsy after 50 days post initiation of treatment. Animals euthanized in extremis or at study termination were euthanized by CO2 inhalation. Necropsy included examination of the external surface, all orifices and the thoracic, abdominal and pelvic cavities, including viscera. At the time of necropsy, a final body weight and body condition score was collected.

[7] = system: human renal cell adenocarcinoma (786-O cell line); test: H&E and immunohistochemical evaluation of xenograft tumors; type: in vivo, Rat (Rattus norvegicus); conditions: for morphologic and immunohistochemical appearance of tumor: IV, 3 weekly cycles, versus vehicle/control
Source text: Tissue Collection: Primary Tumor (Inoculation site)—A final tumor measurement was taken prior to excision. Tumors were weighed after excision. Approximately ½ of each tumor (based on visual assessment) was flash frozen in 2-methylbutane on dry ice, the tumor piece was weighed when possible before it is flash frozen. The remaining was fixed in 10% neutral buffered formalin. Tumors were also collected from animals not reaching enrollment volume. Secondary Tumors—Any organ with visible tumors were collected and fixed in 10% neutral buffered formalin. Formalin fixed tissues were stored at room temperature. Frozen tissues were stored at −80° C. All tissue was stored for up to 3 months. Pictures of all tumors; primary and secondary if present, were taken.
Microscopic Examination: Tissues fixed with 10% NBF were embedded in paraffin. Each tumor was cut into 2-3 pieces and embedded and sectioned together.

[8] = Particle size analysis (light obscuration and laser diffraction); type: physicochemical
Source text: The particle size of the taxane particles can be determined by a particle size analyzer instrument and the measurement is expressed as the mean diameter based on a number distribution (number). A suitable particle size analyzer instrument is one which employs the analytical technique of light obscuration, also referred to as photozone or single particle optical sensing (SPOS). A suitable light obscuration particle size analyzer instrument is the ACCUSIZER, such as the ACCUSIZER 780 SIS, available from Particle Sizing Systems, Port Richey, Fla. Another suitable particle size analyzer instrument is one which employs laser diffraction, such as the Shimadzu SALD-7101.
Particle size was analyzed by both light obscuration and laser diffraction methods.
The vials were vortexed for approximately 10 seconds and then sonicated in a sonic bath approximately 1 minute.
The vial was vortexed for approximately 10 seconds and then sonicated in a sonic bath for approximately 2 minutes. This suspension was used for laser diffraction analysis. Unused suspension was poured into a 125 mL particle-free plastic bottle, which was then filled to approximately 100 mL with filtered dispersant. The suspension was vortex for approximately 10 seconds and then sonicated in the sonic bath for approximately 2 minutes. This diluted suspension was used for light obscuration analysis. […]

Paclitaxel Dissolution time course ([1]; 0 minutes) | Dissolution (30 min) ([1]; methanol/water 50/50 (v/v), 37° C., pH 7, 75 rpm, 30 min) | Bulk Density (not tapped) [2] | Surface area (BET, SSA) [3] | Surface area (BET, SSA) ([3]; listed as raw paclitaxel) | Structure (SMILES) | tumor growth [4] | Docetaxel Dissolution time course ([5]; 0 minutes) | Docetaxel Dissolution time course ([5]; 5 minutes) | Docetaxel Dissolution time course ([5]; 15 minutes) | Dissolution (30 min) ([5]; methanol/water 15/85 (v/v), 37° C., pH 7, 75 rpm, 30 min) | toxicity [6] | animals with Mild lymphohistiocytic infiltrate density ([7]; H/E and CD11b, IV docetaxel 3 cycles, 2 animals) | animals with <5% of tissue showing necrosis ([7]; IV docetaxel 3 cycles, 2 animals) | animals with viable carcinoma >10 mm ([7]; IV docetaxel 3 cycles, 2 female rats) | morphologic and immunohistochemical appearance of tumor [7] | morphologic and immunohistochemical appearance of tumor ([7]; listed as Docetaxel) | Number Mean [8] | Volume Mean [8]
0.0% | 18% | 0.26 g/mL | 10.4 m^2/g | 7.25 m^2/g | CC(=O)O[C@H]1C(=O)[C@@]2(C)[C@H]([C@H](OC(=O)c3ccccc3)[C@]3(O)C[C@H](OC(=O)[C@H](O)[C@@H](NC(=O)c4ccccc4)c4ccccc4)C(C)=C1C3(C)C)[C@]1(OC(C)=O)CO[C@@H]1C[C@@H]2O [Paclitaxel Raw Material, paclitaxel] |  |  |  |  |  |  |  |  |  |  |  |  | 
 |  |  |  |  | CC(=O)O[C@@]12CO[C@@H]1C[C@H](O)[C@@]1(C)C(=O)[C@H](O)C3=C(C)[C@@H](OC(=O)[C@H](O)[C@@H](NC(=O)OC(C)(C)C)c4ccccc4)C[C@@](O)([C@@H](OC(=O)c4ccccc4)[C@H]21)C3(C)C [docetaxel] | partial tumor growth inhibition compared to vehicle control | 0.0% | 3.2% | 6.9% | 11% | observed toxicity on day 7 | 2 | 2 | 2 | identical morphologic and immunohistochemical appearance to that seen in the control and IT vehicle groups | no difference | 1.58 um | 5.05 um

Reference: patent publication US20190365699A1, “Treatment of Kidney Tumors by Intratumoral Injection of Taxane Particles” (CRITITECH, INC., priority 2018, published 2019)
